The values that follow come from publication PMC9166766 (Experimental & Molecular Medicine, 2022).

On the set-up of series [1]: method as in PMID 24319282. Particulars: ref [17]; cited from earlier work. An excerpt:
FK506 and cyclosporin A, respectively cooperating with FKBP12 or cyclophilin, spatially hinder the substrates’ access to the active site of calcineurin, inhibiting its phosphatase activity[30],[31].

Series [2] has as its system calcineurin (CNA) phosphatase activity. As to the kind of experiment: Calcineurin cellular activity assay in Jurkat T cells. The conditions noted are these: HA-mCherry-tagged peptides, PMA and ionomycin. Type of series: cell-based. As for the experimental part:
(§1) We measured calcineurin phosphatase activity in vitro using a calcineurin phosphatase assay kit (BML-AK804, Enzo Life Sciences, Farmingdale, NY, USA). We incubated GST or GST-tagged peptides with CNA for 30 min at room temperature and then followed the manufacturer’s instructions. To measure endogenous calcineurin phosphatase activity, we transiently transfected Jurkat T cells with CAG-HA-mCherry-peptides by electroporation. After 24 h, we pretreated the Jurkat T cells with FK506 for 1 h before activating them with PMA and ionomycin. Next, we washed the cells with TBS buffer (20 mM Tris, pH 7.2, 150 mM NaCl), resuspended them with lysis buffer from the calcineurin cellular activity assay kit (BML-AK816, Enzo Life Sciences), and kept them on ice for 30 min. We collected the lysate supernatant and removed free phosphate by gel filtration using the Desalting Column Resin included in the kit. Next, we followed the manufacturer’s instructions.
(§2) Jurkat T cells expressing only HA-mCherry were used as a negative control, and cells treated with FK506 were used as a positive control. d In vitro calcineurin phosphatase activity assays using purified GST-tagged peptides. Purified GST was used as a negative control. […] Statistical differences were determined using one-way ANOVA. *p < 0.05, NS nonsignificant, NC negative control.

In series [3] the test system is CNAβ2 (calcineurin catalytic subunit). As to the kind of experiment: Mammalian two-hybrid assay (VP16 AD-CNAβ2 and GAL4 DBD-peptides, pG5-luc) in HEK293T cells. Type of series: cell-based. As to the method:
(§3) To measure the transcriptional activity of NFAT, we cotransfected Jurkat T cells with GST-tagged peptides and NFAT-luc by electroporation. After 24 h, we pretreated the cells with 0.5 μM FK506 for 1 h and then treated them with 40 nM PMA and 1 μM ionomycin for 8 h. For the mammalian two-hybrid assay, we cotransfected HEK293T cells with GAL4 DBD-tagged CABIN1, VIVIT, chimeric and substituted peptides, VP16 activation domain-tagged CNAβ2, and pG5-luc (luciferase reporter plasmid containing the GAL4-responsive promoter) for 24 h. We lysed the harvested cells with a luciferase assay lysis buffer (17 mM KH2PO4, 183 mM K2HPO4, pH 7.8, 0.2% [v/v] Triton X-100) and sonicated them briefly. We measured luciferase activity for each cell lysate using an Infinite M200 (Tecan, Männedorf, Switzerland). In addition, we confirmed the expression level of the transfected proteins by Western blotting.
A mammalian two-hybrid assay using these peptides was performed (bottom). The compositions of the transfected DNA are described in Supplementary Fig. 1a–c. All experiments were repeated three times and are presented as the mean ± standard deviation. […] SE short exposure, LE long exposure, NC negative control, WT wild-type.
NC negative control, WT wild-type.

The subject of series [4] is NFAT transcriptional activity. The experiment in a line: NFAT-luc luciferase reporter assay in Jurkat T cells. The conditions noted are these: GST-tagged peptides, 40 nM PMA and 1 μM ionomycin 8 h. Type of series: cell-based. As to the method: as §3
(§4) RU response units, NC negative control.
(1 picture or pasted object on this page, not shown here)
For orientation: A reporter such as luciferase makes a cellular process visible.

A further series has as its system ERK2. The experiment in a line: In vitro kinase assay, ERK2. Type of series: biochemical. The conditions noted are these: GST-tagged peptide, 1 h, 30 °C, 50 μM ATP. As for the experimental part:
(§5) We used the purified GST-tagged peptides for the in vitro kinase assays with activated recombinant kinases obtained from Proqinase GmbH (Freiburg, Germany). We performed the kinase assays in reaction buffer (50 mM HEPES-NaOH, pH 7.5, 3 mM MgCl2, 3 mM MnCl2, 3 μM sodium orthovanadate, 1 mM dithiothreitol, 50 μM unlabeled ATP, 5 μCi ^32P-γ-ATP) for 1 h at 30 °C. We stopped the reaction by adding 5× sample buffer and separated the proteins using SDS-PAGE. The gel was stained with Coomassie Brilliant Blue, dried, and developed on X-ray film.
(§6) The phosphorylated threonine of the immunoprecipitated peptide with HA antibody was detected with [PXpTP] antibody. b In vitro kinase assays using purified GST-tagged CABIN1 peptide and PKC downstream kinases. c In vitro kinase assays using purified GST-tagged peptides and kinases included in the MAPK family. d Immunoprecipitation assays using Flag-MAPKs and HA-CABIN1 in HEK293T cells. e, f In vitro kinase assays using p38α and substituted CABIN1 peptides. g Jurkat T cells expressing HA-mCherry-tagged CABIN1 peptide were treated with 10 μM p38α inhibitors for 16 h. Immunoprecipitation was performed with HA antibody and detected by western blotting. h Phosphorylated threonine and peptide-bound CNA of g were measured using ImageJ, and the ratio of phosphorylation and calcineurin binding to the CABIN1 peptide was calculated (n = 6). […]

The subject of series [5] is calcineurin (CNA) phosphatase activity. As to the kind of experiment: In vitro calcineurin phosphatase activity assay. Format: biochemical. Particulars: purified GST-tagged peptides with CNA 30 min room temperature. As to the method: as §1, §2
In a further series the test system is p38α. As to the kind of experiment: In vitro kinase assay, p38α. Type of series: biochemical. The conditions noted are these: GST-tagged peptide, 1 h, 30 °C, 50 μM ATP. As to the method: as §5, §6
The subject of series [6] is CNA (calcineurin catalytic subunit). As to the kind of experiment: In vitro peptide competition assay (GST-tagged peptide / His6-tagged CNA). The conditions noted are these: competitor CABIN1-L-1; molar ratio GST-peptide to competitor 1:50 to 1:400. Format: binding.
Another series has as its system JNK1. The experiment in a line: In vitro kinase assay, JNK1. Format: biochemical. Particulars: GST-tagged peptide, 1 h, 30 °C, 50 μM ATP. As to the method:
as §5, §6

In the next series the test system is MKK4. The experiment in a line: In vitro kinase assay, MKK4. Format: biochemical. Particulars: GST-tagged peptide, 1 h, 30 °C, 50 μM ATP. As for the experimental part: as §5, §6
Series [7] deals with CABIN1 peptide threonine 9 phosphorylation. As to the kind of experiment: Phosphorylation of threonine 9 of the expressed peptide in Jurkat T cells (PXpTP western blot, LC-MS/MS). Format: cell-based. Particulars: HA-mCherry-tagged peptide; western blot (PXpTP antibody) and LC-MS/MS.
Source text: We lysed the cells in IP150 buffer and immunoprecipitated Flag- and HA-tagged proteins with Anti-FLAG ® M2 Affinity Gel (Sigma–Aldrich) and Pierce™ Anti-HA Agarose (Thermo Fisher Scientific), respectively. The composition of the buffer and the subsequent process was described previously. To quantify the western blot results, we measured the band areas using ImageJ (https://imagej.nih.gov/ij/).
We purified HA-mCherry-tagged CABIN1-L-1-2 peptides expressed in Jurkat T cells by immunoprecipitating 4 mg of lysates with Pierce™ Anti-HA Agarose. We eluted the bead-bound proteins by competition with 1 mg/ml HA peptide. After separation by SDS-PAGE and staining with Coomassie Brilliant Blue, we analyzed the purified proteins by LC-MS/MS (ProteomeTech, Inc., Seoul, Korea).
as §4
The phosphorylated threonine of the immunoprecipitated peptide with HA antibody was detected with [PXpTP] antibody. b In vitro kinase assays using purified GST-tagged CABIN1 peptide and PKC downstream kinases. c In vitro kinase assays using purified GST-tagged peptides and kinases included in the MAPK family. d Immunoprecipitation assays using Flag-MAPKs and HA-CABIN1 in HEK293T cells. e, f In vitro kinase assays using p38α and substituted CABIN1 peptides. g Jurkat T cells expressing HA-mCherry-tagged CABIN1 peptide were treated with 10 μM p38α inhibitors for 16 h. Immunoprecipitation was performed with HA antibody and detected by western blotting. h Phosphorylated threonine and peptide-bound CNA of g were measured using ImageJ, and the ratio of phosphorylation and calcineurin binding to the CABIN1 peptide was calculated (n = 6). […] Statistical differences were determined using one-way ANOVA. *p < 0.05, **p < 0.01, ***p < 0.001, CBB Coomassie Brilliant Blue, NC negative control.
(In western blotting, separated proteins are transferred to a membrane and probed.)

A short description of series [8]: Protein stability of HA-mCherry-VIVIT peptides in Jurkat T cells (western blot, FACS). Format: cell-based. The conditions noted are these: mCherry-tagged, vs VIVIT 15-mer.
Method: We quantified the expression of mCherry-tagged VIVIT peptides using LSRII (SORP) (Becton Dickinson, Franklin Lakes, NJ, USA). We analyzed the results with FlowJo (Tree Star, Inc., Ashland, OR, USA).
Protein expression l evels of VIVIT peptides were detected with HA antibody in Jurkat T cells expressing HA-mCherry -VIVIT peptides. c mCherry expression intensity and distribution
cells/sample) d mRNA expression level of mCherry was measured by qRT -PCR. (n=4) Values shown are the mean ± standard deviation. SE, short exposure, LE, long expo sure, NC, negative

No end group written: not given here.

`C=CC[C@@H]1/C=C(\C)C[C@H](C)C[C@H](OC)[C@H]2O[C@@](O)(C(=O)C(=O)N3CCCC[C@H]3C(=O)O[C@H](/C(C)=C/[C@@H]3CC[C@@H](O)[C@H](OC)C3)[C@H](C)[C@@H](O)CC1=O)[C@H](C)C[C@@H]2OC` [FK506, reference compound]: the side effects result in [1] was “nephrotoxicity, fibrogenesis, neurotoxicity, and diabetes”. Besides, the “calcineurin phosphatase activity in cells” value in [2] is “decreased the phosphatase activity of CNA”.
Consider “CABIN1-L-1-2: 10 amino acids from proline 2146 to proline 2155 of full-length CABIN1; expressed GST-, GAL4 DBD- or HA-mCherry-tagged (PEITVTPPTP; also: expressed GST-, GAL4 DBD- or HA-mCherry-tagged, end not given here)”, for which the “interaction with / binding affinity to CNA (mammalian two-hybrid)” value in series [3] (CNAβ2, 24 h, repeated three times) was “still bound to CNA”. The “interaction with CNA, effect of 1 μM ionomycin” value in series [3] (with or without 1 μM ionomycin) is given as “did not affect the interaction”. Besides, in [4] (n = 3), the NFAT luciferase activity result is reported as “repressed luciferase activity compared with the negative control”. Further, in series [4] (n = 3, vs VIVIT peptide), the “inhibitory effect on NFAT luciferase relative to VIVIT peptide” value is given as “approximately four times stronger than that of the VIVIT peptide”. Moreover, in the series on ERK2, the “phosphorylation by ERK2” value is on record as “phosphorylated”. In [5], the “calcineurin phosphatase activity in vitro” value is “did not reduce the phosphatase activity of CNA in vitro”. Moreover, the “phosphorylation by p38α” value with p38α is reported as “phosphorylated”. For the same compound, the “calcineurin phosphatase activity in cells” value in series [2] is given as “did not”. In addition, in [6], the “interference with interaction between GST-tagged VIVIT peptide and His6-tagged CNA” value was “dose-dependently interfered with the interaction”. In addition, in the series with JNK1, the “phosphorylation by JNK1” value was “phosphorylated”. Besides, the “phosphorylation by MKK4” value in the series on MKK4 is recorded as “directly phosphorylate”. Further, the “threonine 9 phosphorylation in Jurkat T cells” value in [7] is “observed threonine 9 phosphorylation”. Also, the “stability under physiological conditions vs full-length VIVIT peptide (15-mer)” value in [8] is reported as “more stable than the full-length VIVIT peptide (15-mer)”.
